Values quoted from earlier work as cited in patent US7351421B2, “Drug-eluting stent having collagen drug carrier chemically treated with genipin” (priority 1996, dated 2008).
“Also recorded” adds a separate entry of the source.

Columns and labels:
CHO-K1 cells = conditions: in vitro
3T3 fibroblasts = conditions: in vitro
[1] = glutaraldehyde used to crosslink materials
smooth muscle cell = conditions: in vitro
intimal proliferation = conditions: de-endothelialized rabbits, in vivo
[2] = tested on: intimal proliferative lesion; conditions: in vivo

For `COC(=O)C1=CO[C@@H](O)[C@@H]2C(CO)=CC[C@H]12` [Genipin], which LD50 i.v. (mice) is on record?
Its LD50 i.v. is 382 mg/k.

And the “clastogenic response (genotoxicity)” value (CHO-K1 cells)?
The value was “does not cause clastogenic response”.

What about the “cytotoxicity compared with glutaraldehyde” value (3T3 fibroblasts) of the same compound?
The value was “substantially less cytotoxic; also recorded: significantly less cytotoxic”.

With `O=CCCCC=O` [glutaraldehyde] as the compound, how does the “crosslinking concentration giving persistent foreign-body reaction” value [1] read?
Its value is “above 0.05%”.

And the “concentration at which cytotoxic” value (tissue culture)?
The value was 10-25 ppm.

And the “concentration at which cytotoxic in tissue culture” value (tissue culture; tissue culture, as low as)?
The value was ≥ 3 ppm.

With cyclosporin A as the compound, how does the “effect on smooth muscle cell proliferation” value (smooth muscle cell) read?
Its value is “did not inhibit”.

And the “reduction of intimal proliferation” value (intimal proliferation)?
Its value is “no significant reduction”.

What about the “effect on intimal proliferative lesion following arterial balloon catheterization” value [2] of the same compound?
Its value is “inhibition”.
